# Values of other authors as cited in patent publication US20220273779A1, “TAU PEPTIDE ANTIGENS AND ANTIBODIES BINDING THERETO FOR THE TREATMENT OF TAUOPATHIES” (The Board of Regents of the University of Texas System, priority 2018, published 2022).
# Like-named read-outs stand apart in the source and are kept apart here.
# Key:
# [1] = RRMS, first-line treatments
substance,measurement,setting,value
glatiramer acetate,Reduction of relapses,[1],approximately 30%
same,Irritation at the injection site,intramuscular injections,≤ 33%
same,Irritation at the injection site,subcutaneous injections,up to 90%
